Data: ChEMBL document CHEMBL1140602, “A simple, yet highly accurate, QSAR model captures the complement inhibitory activity of compstatin” (Bioorg Med Chem, 2007)
Positions of bridges follow the written chain, without caps; N, C: chain ends. Non-standard residues stand in square brackets, D forms with d. Residues, ends and D or L forms follow the SMILES beside them. Abu = CC[C@H](N)C(=O)O

Assay: Inhibition of C3b activation relative to compstatin

| logIC50 | Structure (SMILES) |
| --- | --- |
| 1.55 | CC[C@H](C)[C@H](N)C(=O)N[C@H]1CSSC[C@@H](C(=O)N[C@H](C(=O)O)[C@@H](C)O)NC(=O)[C@H](CCCNC(=N)N)NC(=O)[C@H](Cc2cnc[nH]2)NC(=O)[C@H](C)NC(=O)CNC(=O)[C@H](Cc2c[nH]c3ccccc23)NC(=O)[C@H](CC(=O)O)NC(=O)[C@H](CCC(N)=O)NC(=O)[C@H](C2Cc3ccccc3C2)NC(=O)[C@H](C(C)C)NC1=O |
| 1.58 | CC[C@H](C)[C@H](N)C(=O)N[C@H]1CSSC[C@@H](C(=O)N[C@H](C(=O)O)[C@@H](C)O)NC(=O)[C@H](CCCNC(=N)N)NC(=O)[C@H](Cc2cnc[nH]2)NC(=O)[C@H](C)NC(=O)CNC(=O)[C@H](Cc2c[nH]c3ccccc23)NC(=O)[C@H](CC(=O)O)NC(=O)[C@H](CCC(N)=O)NC(=O)[C@H](Cc2ccc3ccccc3c2)NC(=O)[C@H](C(C)C)NC1=O |
| 0 | CC[C@H](C)[C@H](N)C(=O)N[C@H]1CSSC[C@@H](C(=O)N[C@H](C(N)=O)[C@@H](C)O)NC(=O)[C@H](CCCNC(=N)N)NC(=O)[C@H](Cc2cnc[nH]2)NC(=O)[C@H](Cc2cnc[nH]2)NC(=O)CNC(=O)[C@H](Cc2c[nH]c3ccccc23)NC(=O)[C@H](CC(=O)O)NC(=O)[C@H](CCC(N)=O)NC(=O)[C@H](C(C)C)NC(=O)[C@H](C(C)C)NC1=O |
| 1.47 | CC[C@H](C)[C@H](NC(C)=O)C(=O)N[C@H]1CSSC[C@@H](C(=O)N[C@H](C(=O)O)[C@@H](C)O)NC(=O)[C@H](CCCNC(=N)N)NC(=O)[C@H](Cc2cnc[nH]2)NC(=O)[C@H](C)NC(=O)CNC(=O)[C@H](Cc2c[nH]c3ccccc23)NC(=O)[C@H](CC(=O)O)NC(=O)[C@H](CCC(N)=O)NC(=O)[C@H](Cc2cccc3ccccc23)NC(=O)[C@H](C(C)C)NC1=O |
| 0.477 | CC[C@H](C)[C@H](NC(C)=O)C(=O)N[C@H]1CSSC[C@@H](C(=O)N[C@H](C(N)=O)[C@@H](C)O)NC(=O)[C@H](CCCNC(=N)N)NC(=O)[C@H](Cc2cnc[nH]2)NC(=O)[C@H](Cc2cnc[nH]2)NC(=O)CNC(=O)[C@H](Cc2c[nH]c3ccccc23)NC(=O)[C@H](CC(=O)O)NC(=O)[C@H](CCC(N)=O)NC(=O)[C@H](C(C)C)NC(=O)[C@H](C(C)C)NC1=O |
| 0.16 | CC[C@H](C)[C@H](NC(C)=O)C(=O)N[C@H]1CSSC[C@@H](C(=O)N[C@H](C(N)=O)[C@@H](C)O)NC(=O)[C@H](CCCNC(=N)N)NC(=O)[C@H](Cc2cnc[nH]2)NC(=O)[C@H](Cc2cnc[nH]2)NC(=O)CNC(=O)[C@H](Cc2c[nH]c3ccccc23)NC(=O)[C@H](CC(=O)O)NC(=O)[C@H](CC(N)=O)NC(=O)[C@H](C(C)C)NC(=O)[C@H](CC(C)C)NC1=O (Ac-ICLVNDWGHHRCT-NH2; disulfide 2-12) |
| 0.079 | CC[C@H](C)[C@H](NC(C)=O)C(=O)N[C@H]1CSSC[C@@H](C(=O)N[C@H](C(N)=O)[C@@H](C)O)NC(=O)[C@H](CCCNC(=N)N)NC(=O)[C@H](Cc2cnc[nH]2)NC(=O)[C@H](Cc2cnc[nH]2)NC(=O)CNC(=O)[C@H](Cc2c[nH]c3ccccc23)NC(=O)[C@H](CC(=O)O)NC(=O)[C@H](CCC(N)=O)NC(=O)[C@H](C(C)C)NC(=O)[C@H](CC(C)C)NC1=O (Ac-ICLVQDWGHHRCT-NH2; disulfide 2-12) |
| 0.477 | CC[C@H](C)[C@H](NC(=O)[C@@H]1CSSC[C@H](NC(=O)[C@@H](NC(C)=O)[C@@H](C)CC)C(=O)N[C@@H](C(C)C)C(=O)N[C@@H](C)C(=O)N[C@@H](CCC(N)=O)C(=O)N[C@@H](CC(=O)O)C(=O)N[C@@H](Cc2c[nH]c3ccccc23)C(=O)NCC(=O)N[C@@H](C)C(=O)N[C@@H](Cc2cnc[nH]2)C(=O)N[C@@H](CCCNC(=N)N)C(=O)N1)C(N)=O (Ac-ICVAQDWGAHRCI-NH2; disulfide 2-12) |
| 0.721 | CC[C@H](C)[C@H](NC(C)=O)C(=O)N[C@H]1CSSC[C@@H](C(=O)N[C@H](C(N)=O)[C@@H](C)O)NC(=O)[C@H](CCCNC(=N)N)NC(=O)[C@H](Cc2cnc[nH]2)NC(=O)[C@H](Cc2cnc[nH]2)NC(=O)CNC(=O)[C@H](Cc2c[nH]c3ccccc23)NC(=O)[C@H](CC(=O)O)NC(=O)[C@H](CCC(N)=O)NC(=O)[C@H](Cc2ccccc2)NC(=O)[C@H](C(C)C)NC1=O (Ac-ICVFQDWGHHRCT-NH2; disulfide 2-12) |
| 0.708 | CC[C@H](C)[C@H](NC(C)=O)C(=O)N[C@H]1CSSC[C@@H](C(=O)N[C@H](C(N)=O)[C@@H](C)O)NC(=O)[C@H](CCCNC(=N)N)NC(=O)[C@H](Cc2cnc[nH]2)NC(=O)[C@H](Cc2cnc[nH]2)NC(=O)CNC(=O)[C@H](Cc2c[nH]c3ccccc23)NC(=O)[C@H](CC(=O)O)NC(=O)[C@H](CCC(N)=O)NC(=O)[C@H](Cc2cnc[nH]2)NC(=O)[C@H](C(C)C)NC1=O (Ac-ICVHQDWGHHRCT-NH2; disulfide 2-12) |
| 0.022 | CC[C@H](C)[C@H](NC(C)=O)C(=O)N[C@H]1CSSC[C@@H](C(=O)N[C@H](C(N)=O)[C@@H](C)O)NC(=O)[C@H](CCCNC(=N)N)NC(=O)[C@H](Cc2cnc[nH]2)NC(=O)[C@H](Cc2cnc[nH]2)NC(=O)CNC(=O)[C@H](Cc2c[nH]c3ccccc23)NC(=O)[C@H](CC(=O)O)NC(=O)[C@H](CCC(N)=O)NC(=O)[C@H](CO)NC(=O)[C@H](C(C)C)NC1=O (Ac-ICVSQDWGHHRCT-NH2; disulfide 2-12) |
| -0.699 | CC[C@H](C)[C@H](NC(C)=O)C(=O)N[C@H]1CSSC[C@@H](C(=O)N[C@H](C(N)=O)[C@@H](C)O)NC(=O)[C@H](C)NC(=O)[C@H](Cc2cnc[nH]2)NC(=O)[C@H](Cc2cnc[nH]2)NC(=O)CNC(=O)[C@H](Cc2c[nH]c3ccccc23)NC(=O)[C@H](CC(=O)O)NC(=O)[C@H](CC(N)=O)NC(=O)[C@H](C(C)C)NC(=O)[C@H](C(C)C)NC1=O (Ac-ICVVNDWGHHACT-NH2; disulfide 2-12) |
| 0.456 | CC[C@H](C)[C@H](NC(C)=O)C(=O)N[C@H]1CSSC[C@@H](C(=O)N[C@H](C(N)=O)[C@@H](C)O)NC(=O)[C@H](CCCNC(=N)N)NC(=O)[C@H](Cc2cnc[nH]2)NC(=O)[C@H](Cc2cnc[nH]2)NC(=O)CNC(=O)[C@H](Cc2c[nH]c3ccccc23)NC(=O)[C@H](CC(=O)O)NC(=O)[C@H](CC(N)=O)NC(=O)[C@H](C(C)C)NC(=O)[C@H](C(C)C)NC1=O (Ac-ICVVNDWGHHRCT-NH2; disulfide 2-12) |
| 0.084 | CC[C@H](C)[C@H](NC(C)=O)C(=O)N[C@H]1CSSC[C@@H](C(=O)N[C@H](C(N)=O)[C@@H](C)O)NC(=O)[C@H](C)NC(=O)[C@H](Cc2cnc[nH]2)NC(=O)[C@H](C)NC(=O)CNC(=O)[C@H](Cc2c[nH]c3ccccc23)NC(=O)[C@H](CC(=O)O)NC(=O)[C@H](CCC(N)=O)NC(=O)[C@H](C(C)C)NC(=O)[C@H](C(C)C)NC1=O (Ac-ICVVQDWGAHACT-NH2; disulfide 2-12) |
| 0.617 | CC[C@H](C)[C@H](NC(C)=O)C(=O)N[C@H]1CSSC[C@@H](C(=O)N[C@H](C(N)=O)[C@@H](C)O)NC(=O)[C@H](CCCNC(=N)N)NC(=O)[C@H](Cc2cnc[nH]2)NC(=O)[C@H](C)NC(=O)CNC(=O)[C@H](Cc2c[nH]c3ccccc23)NC(=O)[C@H](CC(=O)O)NC(=O)[C@H](CCC(N)=O)NC(=O)[C@H](C(C)C)NC(=O)[C@H](C(C)C)NC1=O (Ac-ICVVQDWGAHRCT-NH2; disulfide 2-12) |
| 0.574 | CC[C@H](C)[C@H](NC(=O)[C@@H]1CSSC[C@H](NC(=O)[C@@H](NC(C)=O)[C@@H](C)CC)C(=O)N[C@@H](C(C)C)C(=O)N[C@@H](C(C)C)C(=O)N[C@@H](CCC(N)=O)C(=O)N[C@@H](CC(=O)O)C(=O)N[C@@H](Cc2c[nH]c3ccccc23)C(=O)NCC(=O)N[C@@H](Cc2cnc[nH]2)C(=O)N[C@@H](Cc2cnc[nH]2)C(=O)N[C@@H](CCCNC(=N)N)C(=O)N1)C(N)=O (Ac-ICVVQDWGHHRCI-NH2; disulfide 2-12) |
| 1.55 | CC[C@@H]1NC(=O)CNC(=O)[C@H](Cc2c[nH]c3ccccc23)NC(=O)[C@H](CC(=O)O)NC(=O)[C@H](CCC(N)=O)NC(=O)[C@H](Cc2c[nH]c3ccccc23)NC(=O)[C@H](C(C)C)NC(=O)[C@@H](NC(=O)[C@@H](NC(C)=O)[C@@H](C)CC)CSSC[C@@H](C(=O)N[C@H](C(N)=O)[C@@H](C)O)NC(=O)[C@H](CCCNC(=N)N)NC(=O)[C@H](Cc2cnc[nH]2)NC1=O (Ac-ICVWQDWG[Abu]HRCT-NH2; disulfide 2-12) |
| -0.863 | CSCC[C@H](NC(C)=O)C(=O)N[C@H]1CSSC[C@@H](C(=O)N[C@@H](Cc2ccccc2)C(N)=O)NC(=O)[C@H](CCCNC(=N)N)NC(=O)[C@H](Cc2cnc[nH]2)NC(=O)CNC(=O)CNC(=O)[C@H](Cc2c[nH]c3ccccc23)NC(=O)[C@H](CC(=O)O)NC(=O)[C@H](CCC(N)=O)NC(=O)[C@H](Cc2cnc[nH]2)NC(=O)[C@H](C(C)C)NC1=O (Ac-MCVHQDWGGHRCF-NH2; disulfide 2-12) |
| 0.176 | CC(=O)N[C@@H](CCCNC(=N)N)C(=O)N[C@H]1CSSC[C@@H](C(=O)N[C@H](C(N)=O)[C@@H](C)O)NC(=O)[C@H](CCCNC(=N)N)NC(=O)[C@H](Cc2cnc[nH]2)NC(=O)[C@H](Cc2cnc[nH]2)NC(=O)CNC(=O)[C@H](Cc2c[nH]c3ccccc23)NC(=O)[C@H](CC(=O)O)NC(=O)[C@H](CCC(N)=O)NC(=O)[C@H](C(C)C)NC(=O)[C@H](C(C)C)NC1=O (Ac-RCVVQDWGHHRCT-NH2; disulfide 2-12) |
| -0.097 | CC(C)[C@@H]1NC(=O)[C@H](C(C)C)NC(=O)[C@@H](N)CSSC[C@@H](C(=O)O)NC(=O)[C@H](CCCNC(=N)N)NC(=O)[C@H](Cc2cnc[nH]2)NC(=O)[C@H](C)NC(=O)CNC(=O)[C@H](Cc2c[nH]c3ccccc23)NC(=O)[C@H](CC(=O)O)NC(=O)[C@H](CCC(N)=O)NC1=O (H-CVVQDWGAHRC-OH; disulfide 1-11) |
| -0.79 | CC(C)[C@@H]1NC(=O)[C@H](C(C)C)NC(=O)[C@@H](N)CSSC[C@@H](C(=O)O)NC(=O)[C@H](CCCNC(=N)N)NC(=O)[C@H](C)NC(=O)[C@H](Cc2cnc[nH]2)NC(=O)CNC(=O)[C@H](Cc2c[nH]c3ccccc23)NC(=O)[C@H](CC(=O)O)NC(=O)[C@H](CCC(N)=O)NC1=O (H-CVVQDWGHARC-OH; disulfide 1-11) |
| -0.767 | CC(C)[C@@H]1NC(=O)[C@H](C(C)C)NC(=O)[C@@H](N)CSSC[C@@H](C(=O)O)NC(=O)[C@H](C)NC(=O)[C@H](Cc2cnc[nH]2)NC(=O)[C@H](Cc2cnc[nH]2)NC(=O)CNC(=O)[C@H](Cc2c[nH]c3ccccc23)NC(=O)[C@H](CC(=O)O)NC(=O)[C@H](CCC(N)=O)NC1=O (H-CVVQDWGHHAC-OH; disulfide 1-11) |
